Data set [1] is described as follows: Metabolic stability assay in liver microsomes. The format is in vitro ADME, mouse. Conditions: 1 μM, 30 min. How it is done: The metabolic stability assay was performed by incubation of human and selected animal liver microsomes (dog, rat, and mouse) with the test compound at a final concentration of 1 μM, in the presence of 0.5 mg/ml microsomal protein and NADPH-regeneration system, in a total volume of 100 μL phosphate buffer 100 mM (pH 7.4) at 37 °C. The incubation was started by introducing the NADPH-regeneration system and terminated by adding 40 μL of ice-cold acetonitrile at 0- and 30 min. Precipitated proteins were removed by centrifugation at 10,000 g and 4 °C for 5 min. Aliquots of the supernatant were injected onto an LC-MS/MS system. Incubations terminated prior to addition of the NADPH-regeneration system (time point, 0 min) were used as standards, defined as 100%. Percent of the parent compound remaining was calculated by comparing peak areas.
Ta b l e S2 . CYP inhibition, microsomal stability, and hERG in hibition of 5a .
CYP inhibitiona Microsomal stabilityb
( % of c ont rol ac ti vit y) (% of remaining compound) hERG inhibitionc (IC50, μ M) […]
aCytochrome P450 (CYP450) enzyme activity was measured by incubating CYP450 enzyme isotype-specific substrates and liver microsomes in the presence of the test compound (10 μM) for 15 min. […]

Another data set concerns APP/PS1 mice. Briefly: APP/PS1 transgenic mouse model of AD. The note with it: 30 mg/kg/day p.o. 10 days. It counts as in vivo. How it is done:
All mice and rats were housed in a temperature- and humidity-controlled environment with a 12 h light/dark cycle and ad libitum access to food and water. All procedures were performed in accordance with the National Institutes of Health Guide for the Care and Use of Laboratory Animals and approved by the Institutional Animal Care and Use Committee of Korea Institute of Science and Technology (KIST-IACUC-2022-020-1). For the pharmacokinetics study, Sprague-Dawley rats were purchased from Koatech (South Korea) and maintained in a specific pathogen-free facility (Laboratory Animal Center, Daegu-Gyeongbuk Medical Innovation Foundation). For the LPS-induced neuroinflammation model or scopolamine-induced AD model, male C57BL/6N mice were obtained from DBL (South Korea). APP/PS1 (APPswe/PSEN1dE9) transgenic mice from the Jackson Laboratory (USA; stock number 004462) were maintained as hemizygotes on the C57BL/6; C3H genetic background at the Research Animal Resources Center of KIST. 10-week-old C57BL/6N and 12-month-old APP/PS1 were used in behavioral experiments with sex- and age-matched controls.
For the neuroinflammation model, C57BL/6N mice were intraperitoneally injected daily with 0.3 mg/kg LPS (Sigma-Aldrich, L2880) dissolved in saline (0.9% sodium chloride), for 6 consecutive days. In a non-genetic AD model, we induced acute memory deficits in C57BL/6N mice by intraperitoneal injection with 1 mg/kg of scopolamine hydrobromide (Sigma-Aldrich, S0929) dissolved in saline, 30 min before the behavioral tests. At the end of the experimental period, mice were deeply anesthetized with 2% avertin (500 mg/kg, i.p.) and transcardially perfused with saline. Brains were collected from each mouse, and the hippocampus and cortex were isolated and stored at -80 °C for biochemical analysis. Brain hemispheres were postfixed in 4% paraformaldehyde overnight at 4 °C, then placed in 30% sucrose solution for 48 h at 4 °C for cryoprotection and used for histological analysis.
The Y-maze test was used to evaluate the spatial learning and memory performance of mice. The Y-maze apparatus consisted of three identical arms disposed at a 120° angle from each other (41 cm long and 7 cm wide with 15 cm high walls). Mice were placed at the end of one arm and allowed to move freely in the maze for 10 min. The arm entries were manually recorded. Spontaneous alternation was defined as consecutive entries into three different arms and the percentage of alternation was calculated based on the following equation: alternation (%) = number of alternations/(total arm entries - 2) × 100.
Fixed mouse brains were embedded in an optimal cutting temperature compound (Leica, 3801480) and serially sectioned at 30 μm in a cryostat (Thermo Fisher Scientific, HM525 NX). Coronal hippocampal sections were stored in a storage solution (30% glycerol, 30% ethylene glycol, and 30% 0.2 M sodium phosphate buffer, pH 7.2) at 4 °C until use. After washing three times with PBS, the sections were blocked for 1 h with blocking buffer (0.3% Triton X-100 and 4% normal donkey serum in 0.1 M PBS) at room temperature, followed by incubation with primary antibodies in blocking buffer overnight at 4 °C. After washing with PBS, the sections were incubated with corresponding fluorescent secondary antibodies (Jackson ImmunoResearch, Alexa Fluor) for 1 h at room temperature and washed three times with PBS. Nuclei were counterstained with 4′,6-diamidino-2-phenylindole (DAPI; Invitrogen) during the second washing step. Sections were mounted with fluorescent mounting medium (Dako). Fluorescent images were acquired with the ImageXpress Pico (Molecular Devices; 20× magnification) or LSM 800 confocal microscope (Carl Zeiss; 40× magnification). Primary antibodies used are described in Table S6.
Z-stack projected images (20 μm thickness with a step size of 2 μm or 4 μm) were analyzed using the ImageJ software (NIH). To quantify glial reactivity, the mean fluorescence intensity of GFAP or IBA1 was measured. […]

Data set [2] can be described thus: Pharmacokinetics in Sprague-Dawley rats. The note with it: rat, plasma.

Consider `Cc1cc(SCc2[se]c(-c3ccc(C(F)(F)F)cc3)nc2C)ccc1OCC(=O)O` [Compound 5a, {2-Methyl-4-[4-methyl-2-(4-trifluoromethyl-phenyl)-selenazol-5-yl-methylsulfanyl]-phenoxy}-acetic acid], for which the “Microsomal stability, Mouse (% of remaining compound)” value in data set [1] is 76.1 % of remaining compound. Further, in the data set with APP/PS1 mice, the “Astrocytic hypertrophy (Sholl analysis)” value is given as “significantly suppressed”; the “BACE1 levels in cortical homogenates” value is listed as “significantly diminished”; the “GFAP and IBA1 immunoreactivity, dentate gyrus” value is recorded as “significantly inhibited”; the “Gfap mRNA in hippocampus homogenates” value was “reduced levels”. Also, in the data set on APP/PS1 mice, the “Number and area of thioflavin-S Aβ plaques, cortex and hippocampus” value is “significant reduction in the number and area of Aβ plaques”; the “Number of microglia per plaque” value is recorded as “significant increase”; the “Overall tau hyperphosphorylation in the brain” value is listed as “inhibiting overall tau hyperphosphorylation”; the “Phagolysosome area within plaque-associated microglia and internalized Aβ area” value is reported as “increased the phagolysosome area”. In addition, in the data set on APP/PS1 mice, the “Plaque-associated BACE1 accumulation, hippocampus” value is “significantly reduced”; the Y-maze spontaneous alternation entry is recorded as “prevented the decrease in alternation percentage”; the “Y-maze total number of arm entries” value is given as “without inducing any changes”. Also, in the data set with APP/PS1 mice (not significant), the “AT8-positive phosphorylated tau around Aβ plaques” value is “tend to decrease”. In data set [2] (iv, 5 mg/kg), this compound gave an AUC of 7350 ng·h/mL, a Vd of 2.3 ± 0.1 L/kg, a clearance of 10.2 mL/min/kg and a half-life of 2.3 ± 0.6 h. The compound also came in with a bioavailability in data set [2] (oral, 10 mg/kg) of 90.7%. In data set [2] (po, 10 mg/kg), this compound registered an AUC of 13300 ng·h/mL and a Cmax of 2740 ng/mL.

For the origin of these results see paper PMC11488110 (Theranostics, 2024).
